From ChEMBL document CHEMBL1122859, “Novel vasopressin analogues that help define a minimum effective antagonist pharmacophore” (J Med Chem, 1985) come the findings set out here.

The test system of one experiment is Rattus norvegicus. The experiment is described as follows: Dose required to lower urine osmolality to 300 mOsm/kg in rat. It is filed as functional.
Experiment [1] concerns the target T1, Vasopressin V2 receptor (Sus scrofa, UniProt P32307). The experiment is described as follows: Tested for inhibition of vasopressin-stimulated adenylate cyclase of medullary membranes of pig kidney.
Experiment [2] addresses T1, Vasopressin V2 receptor. The experiment is described as follows: Tested for inhibition of [3H]LVP binding to vasopressin receptor in medullary membranes of pig kidney. It is filed as cell membranes.

Molecules are shown by their SMILES. Numbered stars: 1 amine (or outer) side, 2 acyl side, 3 side chain; on linkers, the order of the positions; unused ones are H or OH. Bridge positions count the residues as written; N and C are the ends. Square brackets hold non-standard residues; d marks the D form. Peptide text beside a SMILES is read from it. * marks the point of attachment. X1 = O=C(CC1(S[*:2])CCCCC1)[*:1]; NH(CH2)5NH2 = NCCCCCN*

T1 sequence (P32307 whole entry): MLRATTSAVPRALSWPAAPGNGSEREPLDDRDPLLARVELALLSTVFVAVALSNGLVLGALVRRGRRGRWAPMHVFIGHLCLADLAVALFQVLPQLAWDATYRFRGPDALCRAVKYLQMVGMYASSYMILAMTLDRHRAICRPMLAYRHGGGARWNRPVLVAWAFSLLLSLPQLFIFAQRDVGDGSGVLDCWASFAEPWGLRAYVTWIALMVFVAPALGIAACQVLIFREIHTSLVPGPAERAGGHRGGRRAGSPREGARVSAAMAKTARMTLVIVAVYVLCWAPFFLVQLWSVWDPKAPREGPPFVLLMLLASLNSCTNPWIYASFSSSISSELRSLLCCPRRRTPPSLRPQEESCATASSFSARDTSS

Compound `CCOc1ccc(C[C@H]2NC(=O)CC3(CCCCC3)SSC[C@@H](C(=O)N3CCC[C@H]3C(=O)N[C@@H](CCCCN)C(N)=O)NC(=O)[C@H](CC(N)=O)NC(=O)[C@H](C(C)C)NC(=O)[C@H](Cc3ccccc3)NC2=O)cc1` [listing 1 of 2 here] displayed an ED300 in the experiment on Rattus norvegicus of 0.022 mg/kg.

The compound `CCOc1ccc(C[C@H]2NC(=O)CC3(CCCCC3)SSC[C@@H](C(=O)N3CCC[C@H]3C(=O)NCCCCCN)NC(=O)[C@H](CC(N)=O)NC(=O)[C@H](C(C)C)NC(=O)[C@H](Cc3ccccc3)NC2=O)cc1` ([dY](Et)FVNCP-{NH(CH2)5NH2}; linker N-5 via X1) [listing 1 of 2 here] showed an ED300 in the experiment with Rattus norvegicus of 0.027 mg/kg.

Take `CCOc1ccc(C[C@H]2NC(=O)CC3(CCCCC3)SSC[C@@H](C(=O)N[C@@H](CCCCN)C(N)=O)NC(=O)[C@H](CC(N)=O)NC(=O)[C@H](C(C)C)NC(=O)[C@H](Cc3ccccc3)NC2=O)cc1` [listing 1 of 2 here]: the Ki (usually a measure of affinity in units of concentration, obtained from inhibition or displacement) amounted to 5.8 nM at Vasopressin V2 receptor [1] and 26 nM on Vasopressin V2 receptor [2].

On to `CCOc1ccc(C[C@H]2NC(=O)CC3(CCCCC3)SSC[C@@H](C(=O)NCCCCCN)NC(=O)[C@H](CC(N)=O)NC(=O)[C@H](C(C)C)NC(=O)[C@H](Cc3ccccc3)NC2=O)cc1` [listing 1 of 2 here], for which the ED300 in the experiment on Rattus norvegicus amounted to 0.094 mg/kg.

As to `CCOc1ccc(C[C@H]2NC(=O)CC3(CCCCC3)SSC[C@@H](C(=O)N3CCC[C@H]3C(=O)NCCCCCN)NC(=O)[C@H](CC(N)=O)NC(=O)[C@H](C(C)C)NC(=O)[C@H](Cc3ccccc3)NC2=O)cc1` ([dY](Et)FVNCP-{NH(CH2)5NH2}; linker N-5 via X1) [listing 2 of 2 here], the Ki stood at 7.2 nM on Vasopressin V2 receptor [1] and 30 nM on Vasopressin V2 receptor [2].

Consider `CCOc1ccc(C[C@H]2NC(=O)CC3(CCCCC3)SSC[C@@H](C(=O)N3CCC[C@H]3C(=O)N[C@@H](CCCNC(=N)N)C(N)=O)NC(=O)[C@H](CC(N)=O)NC(=O)[C@H](C(C)C)NC(=O)[C@H](Cc3ccccc3)NC2=O)cc1` ([dY](Et)FVNCPR-NH2; linker N-5 via X1), for which the ED300 in the experiment on Rattus norvegicus was 0.0092 mg/kg.

On to `CCOc1ccc(C[C@H]2NC(=O)CC3(CCCCC3)SSC[C@@H](C(=O)N3CCC[C@H]3C(=O)N[C@@H](CCCCN)C(N)=O)NC(=O)[C@H](CC(N)=O)NC(=O)[C@H](C(C)C)NC(=O)[C@H](Cc3ccccc3)NC2=O)cc1` [listing 2 of 2 here], for which the Ki on Vasopressin V2 receptor [1] came to 9.4 nM; on Vasopressin V2 receptor [2], 37 nM.

As to `CCOc1ccc(C[C@H]2NC(=O)CC3(CCCCC3)SSC[C@@H](C(=O)N3CCC[C@H]3C(=O)N[C@@H](CCCN=C(N)N)C(=O)NCC(N)=O)NC(=O)[C@H](CC(N)=O)NC(=O)[C@H](C(C)C)NC(=O)[C@H](Cc3ccccc3)NC2=O)cc1` ([dY](Et)FVNCPRG-NH2; linker N-5 via X1), in the experiment on Rattus norvegicus, the ED300 was determined as 0.0112 mg/kg.

For `CCOc1ccc(C[C@H]2NC(=O)CC3(CCCCC3)SSC[C@@H](C(=O)NCCCCCN)NC(=O)[C@H](CC(N)=O)NC(=O)[C@H](C(C)C)NC(=O)[C@H](Cc3ccccc3)NC2=O)cc1` [listing 2 of 2 here], the Ki at Vasopressin V2 receptor [1] is 6.8 nM; on Vasopressin V2 receptor [2], 19 nM.

`CCOc1ccc(C[C@H]2NC(=O)CC3(CCCCC3)SSC[C@@H](C(=O)N[C@@H](CCCCN)C(N)=O)NC(=O)[C@H](CC(N)=O)NC(=O)[C@H](C(C)C)NC(=O)[C@H](Cc3ccccc3)NC2=O)cc1` [listing 2 of 2 here]: in the experiment with Rattus norvegicus, the ED300 was determined as 0.059 mg/kg.
